# Results as given in US9738933B2, “RNF41 as a biomarker predicting response to lenalidomide in non-del(5q) MDS” (H. LEE MOFFITT CANCER CENTER AND RESEARCH INSTITUTE, INC., priority 2012, dated 2017).
# Legend:
# EpoR [1] = assay: EpoR stability in UT-7 cells treated with cycloheximide ± LEN, EpoR immunoblot; format: cell-based; details: cycloheximide + 1 μM LEN, CHX alone 56 h
# Experimental: UT-7 cells (a cell line established from the bone marrow of a patient with acute megakaryoblastic leukemia) were treated with cycloheximide (CHX)±1 μM LEN for 0, 32, 40, 48, 56, 64, and 72 hours. The samples were then separated by SDS-PAGE, and immunoblotted with EpoR antibodies.
# IL3-R = IL3-R (Type 1 receptor) expression in UT-7 cells, immunoblot; format: cell-based; details: LEN 0.1, 1, 10 μM, 1 hour
# Experimental: (§1) To examine if the effects of LEN on receptor turnover are restricted to Type 1 cytokine receptors, the effects of LEN on cellular expression of IL3-R (Type 1) and c-Kit (Type 2) were examined. UT-7 cells were treated with increasing concentrations of LEN (0 μM (control), 0.1 μM, 1 μM, and 10 μM) for 1 hour. Samples were separated by SDS-PAGE and immunoblotted with IL3-R (Type 1) and c-Kit (Type 2) antibodies.
# c-Kit = c-Kit (Type 2 receptor) expression in UT-7 cells, immunoblot; format: cell-based; details: LEN 0.1, 1, 10 μM, 1 hour
# Experimental: as §1
# EpoR/RNF41 = molecular target: T1, EpoR/RNF41 (Homo sapiens, UniProt Q9H4P4); assay: EpoR/RNF41 association in UT-7 cells, EpoR immunoprecipitation and RNF41 immunoblot; format: cell-based; details: LEN 0.1, 1, 10 μM, 1 hour
# T1 construct: endogenous in cells; host or cells: UT-7
# T1 sequence (Q9H4P4 1-317): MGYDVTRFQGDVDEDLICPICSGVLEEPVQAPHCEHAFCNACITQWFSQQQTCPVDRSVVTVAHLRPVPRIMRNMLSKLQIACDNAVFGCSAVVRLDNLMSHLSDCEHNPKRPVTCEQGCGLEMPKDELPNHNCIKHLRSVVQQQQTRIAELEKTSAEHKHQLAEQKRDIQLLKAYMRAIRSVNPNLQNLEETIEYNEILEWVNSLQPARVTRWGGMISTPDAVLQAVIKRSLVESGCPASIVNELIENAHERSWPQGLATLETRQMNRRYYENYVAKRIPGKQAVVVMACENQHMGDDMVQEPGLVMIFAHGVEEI
# T1 sequence (P19235 25-508 partner): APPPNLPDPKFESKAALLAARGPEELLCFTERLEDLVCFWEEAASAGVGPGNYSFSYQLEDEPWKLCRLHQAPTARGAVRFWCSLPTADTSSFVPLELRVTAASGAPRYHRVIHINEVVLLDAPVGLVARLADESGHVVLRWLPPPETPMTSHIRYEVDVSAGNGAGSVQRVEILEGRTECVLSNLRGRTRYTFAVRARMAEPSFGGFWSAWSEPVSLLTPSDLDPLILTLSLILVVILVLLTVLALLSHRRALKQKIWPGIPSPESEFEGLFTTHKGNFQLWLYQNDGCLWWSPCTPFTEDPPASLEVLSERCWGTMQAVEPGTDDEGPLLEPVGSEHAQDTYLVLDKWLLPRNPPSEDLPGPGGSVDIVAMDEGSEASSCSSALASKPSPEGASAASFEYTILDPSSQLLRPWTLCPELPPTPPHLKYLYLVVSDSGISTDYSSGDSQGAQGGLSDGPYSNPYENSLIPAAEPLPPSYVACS
# Experimental: To determine if LEN alters EpoR/RNF41 interaction, protein association after LEN treatment was examined. UT-7 cells were treated with increasing concentrations of LEN (0 μM (control), 0.1 μM, 1 μM, and 10 μM) for 1 hour. The cells were then lysed, and the cell lysates were immunoprecipitated for EpoR, and immunoblotted for EpoR and RNF41.
# RNF41 = molecular target: T2, RNF41 (Homo sapiens, UniProt Q9H4P4); assay: RNF41 auto-ubiquitination in bortezomib pre-treated UT-7 cells, RNF41 immunoprecipitation and ubiquitin immunoblot; format: cell-based; details: bortezomib 20 nM 24 hours, then LEN 0.1, 1, 10 μM, 1 hour
# T2 construct: assessed through immunoprecipitation of RNF41 and immunoblotting for ubiquitin; endogenous in cells; host or cells: UT-7
# T2 sequence (Q9H4P4 1-317): T1 sequence (Q9H4P4 1-317)
# Experimental: (§2) To investigate the effects of LEN on RNF41 function, protein specific ubiquitination after proteasomal inhibition with bortezomib followed by LEN treatment was investigated. UT-7 cells were pre-treated with bortezomib (20 nM), a proteasome inhibitor, for 24 hours. The cells were subsequently treated with increasing concentrations of LEN (0 μM (control), 0.1 μM, 1 μM, and 10 μM) for 1 hour. The effect of LEN treatment on RNF41 was assessed through immunoprecipitation of RNF41 and immunoblotting for ubiquitin. To verify the observed effects, total protein levels in whole cell lysates were also assessed for RNF41 expression. In order to determine EpoR ubiquitination changes upon LEN treatment, immunoprecipitation of EpoR was carried out followed by immunoblotting for ubiquitin.
# EpoR [2] = assay: EpoR ubiquitination in bortezomib pre-treated UT-7 cells, EpoR immunoprecipitation and ubiquitin immunoblot; format: cell-based; details: bortezomib 20 nM 24 hours, then LEN 0.1, 1, 10 μM, 1 hour
# Experimental: as §2
# EpoR [3] = assay: LEN-induced EpoR expression in HEK293T cells transfected with EpoR and/or RNF41, immunoblot densitometry; format: cell-based; details: EpoR+pMet7-RNF41 vs EpoR HEK293T cells, LEN 0.1, 1, 10 μM, 1 hour
# Experimental: FIG. 1 is a bar graph plotting the ratio of EpoR/Actin in EpoR and EpoR+pMet7-RNF41 HEK293T cells treated with increasing concentrations of LEN (0 μM (control), 0.1 μM, 1 μM, and 10 μM).
# To confirm that RNF41 is the principal target of LEN responsible for EpoR stabilization, HEK293T cells were transfected with EpoR and/or RNF41 expression vectors using the calcium phosphate method. Transfected cells were treated with increasing concentrations of LEN (0 μM (control), 0.1 μM, 1 μM, and 10 μM) for 1 hour, separated by SDS-PAGE, and immunoblotted with EpoR antibodies. Steady state EpoR expression was lower in EpoR/RNF41 cells compared with cells transfected with EpoR alone.
# non-del(5q) MDS = details: MDS patients with non-del(5q); cited from earlier work
# JAK2-associated EpoR = details: Basiorka, et al. Blood 2011; cited from earlier work
smiles,measurement,setting,value
"Nc1cccc2c1CN(C1CCC(=O)NC1=O)C2=O (stereo not drawn) [LEN, Lenalidomide]",cellular EpoR T1/2,EpoR [1],> 72 h
same,cellular expression of IL3-R,IL3-R,Upregulation of IL3-R occurred in a concentration-dependent manner
same,cellular expression of c-Kit,c-Kit,remained unchanged
same,binding of RNF41 to EpoR,EpoR/RNF41,Increased binding of RNF41 to EpoR occurs in a concentration-dependent manner
same,RNF41 auto-ubiquitination,RNF41,inhibited RNF41 auto-ubiquitination in a concentration-dependent fashion
same,EpoR ubiquitination,EpoR [2],corresponding decrease in EpoR ubiquitination
same,LEN induced EpoR expression (EpoR/Actin) with RNF41 overexpression,EpoR [3],blocked LEN induced EpoR expression by approximately two-fold
same,patients likely to be responsive to treatment,non-del(5q) MDS,approximately 26%
same,cellular expression of JAK2-associated EpoR,JAK2-associated EpoR,induces cellular expression of JAK2-associated EpoR in a concentration-dependent manner
